# Test results: patent US11306092B2, “Amino indole compounds useful as TLR inhibitors” (BRISTOL-MYERS SQUIBB COMPANY, priority 2017, dated 2022)
# What was measured:
# Assay type in all cases: cell-based
# human TLR7 = target: T1, human TLR7 (Homo sapiens, UniProt Q9NYK1); test: TLR7 inhibition reporter assay (HEK-Blue SEAP reporter); conditions: HEK-Blue cells overexpressing human TLR7; gardiquimod 7.5 μM; 22 hour incubation
# T1 construct: host or cells: HEK-Blue cells
# T1 sequence (Q9NYK1 27-1049): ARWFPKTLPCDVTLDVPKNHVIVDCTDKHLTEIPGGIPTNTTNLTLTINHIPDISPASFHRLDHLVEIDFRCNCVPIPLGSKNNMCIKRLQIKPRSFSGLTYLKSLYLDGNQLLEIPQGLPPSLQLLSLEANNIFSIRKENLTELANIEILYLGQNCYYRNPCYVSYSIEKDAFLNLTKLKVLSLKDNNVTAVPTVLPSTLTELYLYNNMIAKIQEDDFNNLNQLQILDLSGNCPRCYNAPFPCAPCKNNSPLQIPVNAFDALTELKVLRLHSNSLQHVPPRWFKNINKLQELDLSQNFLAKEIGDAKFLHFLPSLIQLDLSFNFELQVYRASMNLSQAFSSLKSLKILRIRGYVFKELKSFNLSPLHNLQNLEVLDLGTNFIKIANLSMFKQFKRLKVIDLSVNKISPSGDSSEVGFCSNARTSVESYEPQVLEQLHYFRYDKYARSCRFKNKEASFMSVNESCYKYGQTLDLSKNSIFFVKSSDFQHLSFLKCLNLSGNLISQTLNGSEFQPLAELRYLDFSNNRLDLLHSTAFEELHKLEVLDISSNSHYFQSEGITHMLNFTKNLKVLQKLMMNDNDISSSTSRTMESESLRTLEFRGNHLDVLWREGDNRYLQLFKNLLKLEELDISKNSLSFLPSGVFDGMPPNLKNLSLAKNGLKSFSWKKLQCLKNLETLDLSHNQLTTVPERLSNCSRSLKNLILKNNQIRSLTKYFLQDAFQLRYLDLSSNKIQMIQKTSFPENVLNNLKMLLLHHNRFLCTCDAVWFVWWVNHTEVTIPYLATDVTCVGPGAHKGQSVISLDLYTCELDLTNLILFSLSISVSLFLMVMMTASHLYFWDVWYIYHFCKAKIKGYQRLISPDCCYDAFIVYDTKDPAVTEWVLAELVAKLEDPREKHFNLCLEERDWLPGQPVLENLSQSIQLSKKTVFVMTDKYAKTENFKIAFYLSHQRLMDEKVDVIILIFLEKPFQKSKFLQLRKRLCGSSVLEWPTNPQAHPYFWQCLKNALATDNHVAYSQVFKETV
# How it was run: (§1)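 Screening used HEK-Blue cells overexpressing one human TLR (7, 8 or 9) and an IFN-β minimal promoter–NF-κB/AP-1 SEAP construct. Stimulation lasted 22 h at 37 °C with receptor-specific agonist: gardiquimod, R848 or ODN2006 at 7.5 μM, 15.9 μM and 5 nM.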
# human TLR8 = target: T2, human TLR8 (Homo sapiens, UniProt Q9NR97); test: TLR8 inhibition reporter assay (HEK-Blue SEAP reporter); conditions: HEK-Blue cells overexpressing human TLR8; R848 15.9 μM; 22 hour incubation
# T2 construct: host or cells: HEK-Blue cells
# T2 sequence (Q9NR97 27-1041): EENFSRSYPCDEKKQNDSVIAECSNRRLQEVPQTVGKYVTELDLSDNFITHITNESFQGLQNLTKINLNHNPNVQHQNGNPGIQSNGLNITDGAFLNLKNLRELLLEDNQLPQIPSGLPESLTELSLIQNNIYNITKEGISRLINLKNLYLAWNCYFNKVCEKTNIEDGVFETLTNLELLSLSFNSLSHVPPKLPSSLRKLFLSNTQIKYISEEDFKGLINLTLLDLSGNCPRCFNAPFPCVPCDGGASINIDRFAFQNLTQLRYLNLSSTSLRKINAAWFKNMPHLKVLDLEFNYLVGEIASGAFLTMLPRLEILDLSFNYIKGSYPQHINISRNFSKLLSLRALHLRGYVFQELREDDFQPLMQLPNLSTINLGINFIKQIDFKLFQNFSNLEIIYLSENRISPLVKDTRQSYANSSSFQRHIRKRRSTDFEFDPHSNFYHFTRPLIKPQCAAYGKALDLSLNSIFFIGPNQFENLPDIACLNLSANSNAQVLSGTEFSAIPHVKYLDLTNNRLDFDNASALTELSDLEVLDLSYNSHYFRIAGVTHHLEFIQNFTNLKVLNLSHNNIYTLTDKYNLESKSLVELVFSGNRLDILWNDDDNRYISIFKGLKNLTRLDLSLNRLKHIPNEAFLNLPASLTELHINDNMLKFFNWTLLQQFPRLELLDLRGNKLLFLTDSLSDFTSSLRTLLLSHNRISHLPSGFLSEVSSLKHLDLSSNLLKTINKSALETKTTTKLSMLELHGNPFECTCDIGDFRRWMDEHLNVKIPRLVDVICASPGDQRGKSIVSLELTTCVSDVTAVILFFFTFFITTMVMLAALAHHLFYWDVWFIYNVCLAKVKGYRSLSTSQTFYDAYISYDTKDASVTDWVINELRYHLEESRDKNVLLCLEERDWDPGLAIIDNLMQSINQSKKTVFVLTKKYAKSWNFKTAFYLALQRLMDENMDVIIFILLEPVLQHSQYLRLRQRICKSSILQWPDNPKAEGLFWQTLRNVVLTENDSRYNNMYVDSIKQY
# How it was run: as §1
# human TLR9 = target: T3, human TLR9 (Homo sapiens, UniProt Q9NR96); test: TLR9 inhibition reporter assay (HEK-Blue SEAP reporter); conditions: HEK-Blue cells overexpressing human TLR9; ODN2006 5 nM; 22 hour incubation
# T3 construct: host or cells: HEK-Blue cells
# T3 sequence (Q9NR96 26-1032): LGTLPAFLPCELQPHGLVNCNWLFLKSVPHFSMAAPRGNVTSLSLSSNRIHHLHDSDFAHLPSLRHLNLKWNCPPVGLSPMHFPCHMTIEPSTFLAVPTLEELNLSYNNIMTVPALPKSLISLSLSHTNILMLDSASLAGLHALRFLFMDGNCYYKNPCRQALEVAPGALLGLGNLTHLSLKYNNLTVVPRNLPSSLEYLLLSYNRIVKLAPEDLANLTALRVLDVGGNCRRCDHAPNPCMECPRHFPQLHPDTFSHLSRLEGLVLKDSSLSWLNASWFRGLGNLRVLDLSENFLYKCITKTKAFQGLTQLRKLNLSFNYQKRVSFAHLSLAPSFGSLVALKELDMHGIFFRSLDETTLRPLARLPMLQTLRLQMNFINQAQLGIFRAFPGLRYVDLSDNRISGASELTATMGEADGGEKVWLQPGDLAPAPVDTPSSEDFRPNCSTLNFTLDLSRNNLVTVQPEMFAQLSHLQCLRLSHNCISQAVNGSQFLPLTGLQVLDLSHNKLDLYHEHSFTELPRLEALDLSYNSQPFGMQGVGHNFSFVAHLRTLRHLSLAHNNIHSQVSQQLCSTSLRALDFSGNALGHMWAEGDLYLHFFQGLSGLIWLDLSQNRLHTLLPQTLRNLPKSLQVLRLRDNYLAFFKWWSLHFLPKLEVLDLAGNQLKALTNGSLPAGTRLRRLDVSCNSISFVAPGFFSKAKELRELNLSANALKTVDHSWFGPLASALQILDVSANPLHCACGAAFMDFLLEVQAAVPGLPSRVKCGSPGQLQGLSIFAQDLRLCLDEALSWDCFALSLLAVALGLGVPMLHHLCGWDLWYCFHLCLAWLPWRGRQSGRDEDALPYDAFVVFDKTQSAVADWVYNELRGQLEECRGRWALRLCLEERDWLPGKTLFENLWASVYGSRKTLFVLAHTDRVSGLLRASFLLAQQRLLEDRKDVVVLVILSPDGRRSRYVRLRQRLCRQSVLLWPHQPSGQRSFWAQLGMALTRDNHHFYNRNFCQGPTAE
# How it was run: as §1
SMILES,IC50 (human TLR7) [µM],IC50 (human TLR8) [µM],IC50 (human TLR9) [µM]
"COc1ccc(-c2[nH]c3ccc(NC4CCC(N5CCN(C6CCN(C)CC6)CC5)CC4)cc3c2C(C)C)cc1OC (stereo not drawn) [Example 61, 2-(3,4-dimethoxyphenyl)-3-isopropyl-N-(4-(4-(1-methylpiperidin-4-yl)piperazin-1-yl)cyclohexyl)-1H-indol-5-amine]",0.144,0.174,0.555
"COc1ccc(-c2[nH]c3ccc(NC4CCC(N5CCN(C6CCN(C)CC6)CC5)CC4)cc3c2C(C)C)cc1OC (stereo not drawn) [Example 62, 2-(3,4-dimethoxyphenyl)-3-isopropyl-N-(4-(4-(1-methylpiperidin-4-yl)piperazin-1-yl)cyclohexyl)-1H-indol-5-amine]",0.211,0.212,0.323
"CCc1c(-c2ccc(OC)c(OC)c2)[nH]c2cc(C(C)C)c(N3CCN(C4CCN(C(C)C)CC4)CC3)cc12 [Example 69, 2-(3,4-dimethoxyphenyl)-3-ethyl-6-isopropyl-5-(4-(1-isopropylpiperidin-4-yl)piperazin-1-yl)-1H-indole]",1.16,14.3,2.61
"COc1ccc(-c2[nH]c3ccc(N4CCC(N5CCCC5)CC4)cc3c2C(C)C)cc1OC [Example 70, 2-(3,4-dimethoxyphenyl)-3-isopropyl-5-(4-(pyrrolidin-1-yl)piperidin-1-yl)-1H-indole]",0.13,0.0031,1.7
"COc1ccc(-c2[nH]c3ccc(N4CCC(N5CCNCC5)CC4)cc3c2C(C)C)cc1OC [Example 73, 2-(3,4-dimethoxyphenyl)-3-isopropyl-5-(4-(piperazin-1-yl)piperidin-1-yl)-1H-indole]",0.063,0.065,2.11
"COc1ccc(-c2[nH]c3ccc(N4CCC(N5CCOCC5)CC4)cc3c2C(C)C)cc1OC [Example 74, 4-(1-(2-(3,4-dimethoxyphenyl)-3-isopropyl-1H-indol-5-yl)piperidin-4-yl)morpholine]",0.062,0.015,5.21
"COc1ccc(-c2[nH]c3ccc(N4CCC(N5CC(C)OC(C)C5)CC4)cc3c2C(C)C)cc1OC (stereo not drawn) [Example 80, 4-(1-(2-(3,4-dimethoxyphenyl)-3-isopropyl-H-indol-5-yl)piperidin-4-yl)-2,6-dimethylmorpholine]",0.13,0.019,5.79

# Second part, the compound after the results:
IC50 (human TLR7) [µM],IC50 (human TLR8) [µM],IC50 (human TLR9) [µM],SMILES
0.034,0.011,0.676,"COc1ccc(-c2[nH]c3ccc(N4CCN(C5CC(C)(C)NC(C)(C)C5)CC4)cc3c2C(C)C)cc1OC [Example 68, 2-(3,4-dimethoxyphenyl)-3-isopropyl-5-(4-(2,2,6,6-tetramethyl-112-piperidin-4-yl)piperazin-1-yl)-1H-indole]"
0.015,0.0028,1.39,"CNCCNC1CCN(c2ccc3[nH]c(-c4ccc(OC)c(OC)c4)c(C(C)C)c3c2)CC1 [Example 72, N1-(1-(2-(3,4-dimethoxyphenyl)-3-isopropyl-1H-indol-5-yl)piperidin-4-yl)-N2-methylethane-1,2-diamine]"
0.018,0.0078,0.782,"COc1ccc(-c2[nH]c3ccc(N4CCC(NCCCN(C)C)CC4)cc3c2C(C)C)cc1OC [Example 76, N1-(1-(2-(3,4-dimethoxyphenyl)-3-isopropyl-H-indol-5-yl)piperidin-4-yl)-N3,N3-dimethylpropane-1,3-diamine]"
0.061,0.0096,1.98,"COc1ccc(-c2[nH]c3ccc(N4CCC(NCCCN(C)C)CC4)cc3c2C(C)C)cc1OC [Example 77, N1-(1-(2-(3,4-dimethoxyphenyl)-3-isopropyl-H-indol-5-yl)piperidin-4-yl)-N3,N3-dimethylpropane-1,3-diamine]"
0.05,0.014,0.929,"CCN1CCN(C2CCN(c3ccc4[nH]c(-c5ccc(OC)c(OC)c5)c(C(C)C)c4c3)CC2)CC1 [Example 78, 2-(3,4-dimethoxyphenyl)-5-(4-(4-ethylpiperazin-1-yl)piperidin-1-yl)-3-isopropyl-1H-indole]"
0.0098,0.0047,0.64,"COc1ccc(-c2[nH]c3ccc(N4CCC(NC5CCN(C)CC5)CC4)cc3c2C(C)C)cc1OC [Example 79, 1-(2-(3,4-dimethoxyphenyl)-3-isopropyl-1H-indol-5-yl)-N-(1-methylpiperidin-4-yl)piperidin-4-amine]"
0.044,0.01,1.05,"COc1ccc(-c2[nH]c3ccc(N4CCC(N(C)CCCN(C)C)CC4)cc3c2C(C)C)cc1OC [Example 81, N1-(1-(2-(3,4-dimethoxyphenyl)-3-isopropyl-1H-indol-5-yl)piperidin-4-yl)-N1,N3,N3-trimethylpropane-1,3-diamine]"
0.016,0.0047,0.999,"CCN1CCCN(C2CCN(c3ccc4[nH]c(-c5ccc(OC)c(OC)c5)c(C(C)C)c4c3)CC2)CC1 [Example 84, 2-(3,4-dimethoxyphenyl)-5-(4-(4-ethyl-1,4-diazepan-1-yl)piperidin-1-yl)-3-isopropyl-1H-indole]"
